# Source: patent US20040024024A1, “Aromatic sulfone hydroxamates and their use as protease inhibitors” (priority 2001, published 2004)
# Experiments:
# Experiment in all cases: In vitro MMP inhibition, IC50 determination (fluorogenic substrate I)
# Assay type in all cases: biochemical
# Human recombinant MMP-1 = biological target: T1, Human recombinant MMP-1 (Homo sapiens, UniProt P03956)
# T1 construct: made in house; host or cells: MMP-1-transfected HT-1080 cells (spent media)
# T1 sequence (P03956 100-469): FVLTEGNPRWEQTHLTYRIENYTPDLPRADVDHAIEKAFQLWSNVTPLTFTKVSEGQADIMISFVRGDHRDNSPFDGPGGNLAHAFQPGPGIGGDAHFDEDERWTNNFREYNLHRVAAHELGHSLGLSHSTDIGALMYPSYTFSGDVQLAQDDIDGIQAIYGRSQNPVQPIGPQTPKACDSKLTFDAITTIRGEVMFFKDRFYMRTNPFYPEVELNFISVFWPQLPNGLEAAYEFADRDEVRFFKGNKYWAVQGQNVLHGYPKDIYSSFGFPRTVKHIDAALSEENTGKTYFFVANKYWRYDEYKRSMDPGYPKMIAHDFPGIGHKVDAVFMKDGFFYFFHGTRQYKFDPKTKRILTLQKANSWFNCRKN
# Method in brief: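 APMA- or trypsin-activated enzyme, purified from spent media of transfected HT-1080 cells, incubated at room temperature with 4 μM MCA-Pro-Leu-Gly-Leu-Dpa-Ala-Arg-NH2 and graded inhibitor in Tris buffer pH 7.5 (10 mM CaCl2, 0.05% Brij). Cleavage read by fluorescence (ex 328/em 415 nm); IC50 from fluorescence reduction versus inhibitor concentration.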
# Human recombinant MMP-14 = biological target: T2, Human recombinant MMP-14 (Homo sapiens, UniProt P50281)
# T2 construct: The catalytic domain enzyme was expressed in E. coli inclusion bodies, solubilized in urea; made in house
# Method in brief: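 Catalytic-domain MMP-14, expressed in E. coli and refolded, activated with APMA or trypsin; compounds incubated at room temperature with 4 μM fluorogenic substrate I (MCA-PLGL-Dpa-AR-NH2) in Tris/NaCl/CaCl2 buffer, pH 7.5. Fluorescence at ex 328/em 415 nm; IC50 from loss of fluorescence versus inhibitor concentration.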
# Human recombinant MMP-9 = biological target: T3, Human recombinant MMP-9 (Homo sapiens, UniProt P14780)
# T3 construct: made in house; host or cells: MMP-9-transfected HT1080 cells (spent media)
# T3 sequence (P14780 107-707 limits assumed): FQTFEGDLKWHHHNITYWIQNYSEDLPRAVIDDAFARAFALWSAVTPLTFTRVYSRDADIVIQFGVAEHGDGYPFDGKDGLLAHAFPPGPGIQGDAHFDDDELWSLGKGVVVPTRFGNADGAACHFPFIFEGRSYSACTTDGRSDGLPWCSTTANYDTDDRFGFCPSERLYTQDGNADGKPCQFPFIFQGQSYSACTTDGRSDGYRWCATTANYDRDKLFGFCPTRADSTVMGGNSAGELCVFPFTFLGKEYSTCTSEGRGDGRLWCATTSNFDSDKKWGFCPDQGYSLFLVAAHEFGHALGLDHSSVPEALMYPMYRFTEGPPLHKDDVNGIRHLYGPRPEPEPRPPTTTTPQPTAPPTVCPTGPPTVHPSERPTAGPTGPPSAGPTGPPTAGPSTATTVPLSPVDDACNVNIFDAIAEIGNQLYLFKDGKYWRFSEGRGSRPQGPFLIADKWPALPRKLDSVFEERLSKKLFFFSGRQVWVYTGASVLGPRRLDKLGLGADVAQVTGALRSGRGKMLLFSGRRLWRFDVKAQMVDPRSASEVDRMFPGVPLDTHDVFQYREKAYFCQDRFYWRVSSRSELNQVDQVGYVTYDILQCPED
# Method in brief: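 MMP-9 proenzyme purified from transfected HT1080 cell media, activated with APMA or trypsin. Compound dilutions in pH 7.5 Tris/NaCl/CaCl2 buffer with 0.05% polyoxyethylene 23 lauryl ether, incubated at room temperature with 4 μM MCA/Dpa substrate I. IC50 from fluorescence loss (ex 328, em 415 nm) versus inhibitor concentration.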
# Human recombinant MMP-2 = biological target: T4, Human recombinant MMP-2 (Homo sapiens, UniProt P08253)
# T4 construct: made in house; host or cells: MMP-2-transfected p2AHT2 cells
# T4 sequence (P08253 110-660): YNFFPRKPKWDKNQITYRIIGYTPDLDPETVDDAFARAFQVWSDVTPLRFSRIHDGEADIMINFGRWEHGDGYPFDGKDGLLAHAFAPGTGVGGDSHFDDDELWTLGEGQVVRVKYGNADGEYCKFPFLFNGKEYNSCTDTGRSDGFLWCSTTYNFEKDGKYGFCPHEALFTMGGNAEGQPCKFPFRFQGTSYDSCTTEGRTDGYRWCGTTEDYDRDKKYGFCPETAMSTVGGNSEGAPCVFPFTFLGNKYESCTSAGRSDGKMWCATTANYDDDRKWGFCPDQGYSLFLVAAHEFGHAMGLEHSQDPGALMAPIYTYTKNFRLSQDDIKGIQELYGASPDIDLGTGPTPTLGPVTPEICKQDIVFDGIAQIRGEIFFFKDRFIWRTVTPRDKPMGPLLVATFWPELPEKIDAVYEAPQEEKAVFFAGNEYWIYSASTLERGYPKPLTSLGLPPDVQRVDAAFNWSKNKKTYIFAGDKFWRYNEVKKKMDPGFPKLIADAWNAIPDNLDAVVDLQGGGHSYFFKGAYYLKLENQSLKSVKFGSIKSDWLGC
# Method in brief: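 APMA- or trypsin-activated recombinant MMP-2 was incubated at room temperature with serial inhibitor dilutions in Tris buffer pH 7.5 (100 mM NaCl, 10 mM CaCl2, 0.05% Brij), with DMSO from 1% stocks, and 4 μM substrate I. Cleavage was read by fluorescence at 328/415 nm; IC50 was taken from the loss of fluorescence versus inhibitor concentration.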
# Human recombinant MMP-13 = biological target: T5, Human recombinant MMP-13 (Homo sapiens, UniProt P45452)
# T5 construct: made in house; host or cells: baculovirus / insect cells
# Method in brief: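 Fluorescence at 415 nm (excitation 328 nm) reports Gly-Leu cleavage of 4 μM quenched methoxycoumarin peptide substrate I. Human recombinant MMP-13, activated by trypsin or APMA, was incubated at room temperature with varied inhibitor concentrations in pH 7.5 Tris/NaCl/CaCl2 buffer; IC50 derived from reduced fluorescence.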
# [1] = value outside parentheses (Ki in parenthesis)
Compound,IC50 (Human recombinant MMP-1; value outside parenthesis) [nM],IC50 (Human recombinant MMP-14; value outside parenthesis) [nM],IC50 (Human recombinant MMP-9; value outside parenthesis) [nM],IC50 (Human recombinant MMP-2; value outside parenthesis) [nM],IC50 (Human recombinant MMP-13; value outside parenthesis) [nM],IC50 (Human recombinant MMP-1; [1]) [nM],IC50 (Human recombinant MMP-14; [1]) [nM],IC50 (Human recombinant MMP-9; [1]) [nM],IC50 (Human recombinant MMP-2; [1]) [nM],IC50 (Human recombinant MMP-13; [1]) [nM]
O=C(NO)C1(S(=O)(=O)c2ccc(OCCCc3nc(-c4cccc(OC(F)(F)F)c4)no3)cc2)CCOCC1 [Example 266],> 10000,> 10000,203,391,9.1,–,–,–,–,–
CCOc1ccc(-c2noc(CCCOc3ccc(S(=O)(=O)C4(C(=O)NO)CCN(C5CC5)CC4)cc3)n2)cc1 [Example 268],> 10000,> 10000,674,126,2.5,–,–,–,–,–
O=C(NO)C1(S(=O)(=O)c2ccc(OCCCc3cccc(-c4ccccc4)c3)cc2)CCOCC1 [Example 269],> 10000,> 10000,2750,898,1.8,–,–,–,–,–
CC1CC(C)CN(S(=O)(=O)CCCOc2ccc(S(=O)(=O)C3(C(=O)NO)CCOCC3)cc2)C1 (stereo not shown) [Example 271],> 10000,> 10000,532,8.7,2.9,–,–,–,–,–
O=C(CCCOc1ccc(S(=O)(=O)C2(C(=O)NO)CCOCC2)cc1)NNC(=O)c1ccc(Cl)cc1 [Example 272],399,> 10000,152,4.2,2.8,–,–,–,–,–
COC(=O)CCCOc1ccc(S(=O)(=O)C2(C(=O)NO)CCOCC2)cc1 [Example 274],9860,> 10000,33.6,15.4,4.1,–,–,–,–,–
CC(CCOc1ccc(S(=O)(=O)C2(C(=O)NO)CCOCC2)cc1)C(=O)c1cccs1 (stereo not shown) [Example 276],6670,7020,196,17.4,2.8,–,–,–,–,–
COc1ccc(C(=O)CCCCOc2ccc(S(=O)(=O)C3(C(=O)NO)CCN(C4CC4)CC3)cc2)cc1 [Example 277],> 10000,> 10000,41.5,3.5,0.2,–,–,–,–,–
CC(C)(C)c1ccc(-c2nnc(CCCOc3ccc(S(=O)(=O)C4(C(=O)NO)CCOCC4)cc3)o2)cc1 [Example 278],> 10000,> 10000,494,208,3.7,–,–,–,–,–
COc1cccc(-c2nnc(CCCOc3ccc(S(=O)(=O)C4(C(=O)NO)CCOCC4)cc3)o2)c1 [Example 280],> 10000,> 10000,2030,170,1.5,–,–,–,–,–
O=C(NO)C1(S(=O)(=O)c2ccc(OCCSc3nc4cc(Cl)ccc4s3)cc2)CCOCC1 [Example 281],> 10000,> 10000,276,70.4,1.3,–,–,–,–,–
COc1ccc2sc(SCCOc3ccc(S(=O)(=O)C4(C(=O)NO)CCOCC4)cc3)nc2c1 [Example 282],> 10000,> 10000,704,43.3,2.6,–,–,–,–,–
O=C(NO)C1(S(=O)(=O)c2ccc(OCCCSc3nc4cc(Cl)ccc4s3)cc2)CCOCC1 [Example 284],> 10000,> 10000,18.5,10.1,1.1,–,–,–,–,–
COc1ccc2sc(SCCCOc3ccc(S(=O)(=O)C4(C(=O)NO)CCOCC4)cc3)nc2c1 [Example 285],> 10000,> 10000,23.6,16.7,1.8,–,–,–,–,–
Cc1cc(C)nc(SCCCOc2ccc(S(=O)(=O)C3(C(=O)NO)CCOCC3)cc2)n1 [Example 286],> 10000,> 10000,1130,74.9,4,–,–,–,–,–
CCOc1ccc2nc(SCCCOc3ccc(S(=O)(=O)C4(C(=O)NO)CCOCC4)cc3)sc2c1 [Example 287],> 10000,> 10000,16.4,3.6,0.8,–,–,–,–,–
O=C(NO)C1(S(=O)(=O)c2ccc(OCCCSc3nc4ccccc4s3)cc2)CCOCC1 [Example 288],> 10000,> 10000,10.6,2.3,0.8,–,–,–,–,–
CN(CCCOc1ccc(S(=O)(=O)C2(C(=O)NO)CCOCC2)cc1)C(=O)c1ccc2ccccc2c1 [Example 289],> 10000,> 10000,> 10000,2720,10.1,–,–,–,–,–
CN(CCc1ccccc1)S(=O)(=O)CCCOc1ccc(S(=O)(=O)C2(C(=O)NO)CCOCC2)cc1 [Example 292],–,–,–,–,–,970,> 10000,163,14.4,2.4
O=C(NO)C1(S(=O)(=O)c2ccc(OCCCS(=O)(=O)C3CCCCC3)cc2)CCOCC1 [Example 293],–,–,–,–,–,6150,> 10000,448,2.3,2.6
Cc1cc(-c2nnc(CCCOc3ccc(S(=O)(=O)C4(C(=O)NO)CCOCC4)cc3)o2)ccc1OC(C)C [Example 294],–,–,–,–,–,4620,> 10000,448,100,4.3
CCCC(=O)C(C)CCOc1ccc(S(=O)(=O)C2(C(=O)NO)CCOCC2)cc1 (stereo not shown) [Example 295],–,–,–,–,–,> 10000,> 10000,172,15.6,2.6
O=C(CCCOc1ccc(S(=O)(=O)C2(C(=O)NO)CCOCC2)cc1)c1cccs1 [Example 297],–,–,–,–,–,6810,6560,64.6,8.1,0.5
COc1ccc(CC(=O)CCCOc2ccc(S(=O)(=O)C3(C(=O)NO)CCOCC3)cc2)cc1 [Example 301],–,–,–,–,–,3660,320,9.1,0.2,< 0.1
O=C(CCCOc1ccc(S(=O)(=O)C2(C(=O)NO)CCOCC2)cc1)Cc1ccc(Cl)cc1 [Example 302],–,–,–,–,–,2730,94.9,2.9,0.2,0.1
COc1ccc(C(=O)C(C)CCOc2ccc(S(=O)(=O)C3(C(=O)NO)CCOCC3)cc2)cc1 (stereo not shown) [Example 306],–,–,–,–,–,> 10000,> 10000,185,92.9,1.7
N#Cc1ccc(N2CCN(CCCOc3ccc(S(=O)(=O)C4(C(=O)NO)CCOCC4)cc3)C2=O)cc1 [Example 307],–,–,–,–,–,8130,> 10000,139,135,4.5
C[C@@H]1[C@H](c2ccccc2)OC(=O)N1CCCOc1ccc(S(=O)(=O)C2(C(=O)NO)CCOCC2)cc1 [Example 308],–,–,–,–,–,> 10000,> 10000,1600,176,3.7
C[C@H]1[C@@H](c2ccccc2)OC(=O)N1CCCOc1ccc(S(=O)(=O)C2(C(=O)NO)CCOCC2)cc1 [Example 309],–,–,–,–,–,> 10000,> 10000,1560,135,1.8
